Experimental data published in paper PMC9923724, “Half sandwich-type osmium, ruthenium, iridium and rhodium complexes with bidentate glycosyl heterocyclic ligands induce cytostasis in platinum-resistant ovarian cancer cells and bacteriostasis in Gram-positive multiresistant bacteria” (Frontiers in Chemistry, 2023).
Where two headings read alike, the source gives them in different places.

Key:
[1] = system: A2780 ovarian cancer cells; experiment: MTT reduction assay (rapid toxicity, 4 h) on A2780 cells; assay type: cell-based; details: 4 h treatment
Experimental: (§1) First, we assessed a set of osmium complexes (similar to Ia [[Kacsir et al., 2022]) in Figure 1] and their sugar-derived ligands, in which the benzoyl protective groups on the carbohydrate moiety were replaced by aliphatic acyl groups of different chain length (straight chain C3-C7–CO). Osmium was selected as a central ion, since osmium complexes had the best biological activity in our previous studies ([Balázs et al., 2022]; [Kacsir et al., 2022]). These compounds were tested on A2780 ovarian cancer cells for toxicity and cytostasis. The therapy of ovarian cancer is centered around platinum compounds ([Brown et al., 2019]; [Sipos et al., 2021]), therefore, it was logical to use a cellular model of ovarian cancer for the initial testing of the compounds. Toxicity was assessed using the MTT assay that measures the activity of mitochondrial complex I. We chose 4 h long treatment as in an MTT assay this time point is suitable to detect rapid, direct toxicity. Cytostasis was assessed after 48 h of treatment using the SRB assay that assesses protein content that corresponds to cell count. The characteristics of the compounds are detailed in Table 2.
(§2) 3 × 10^3 A2780 cells, were plated to 96 well plates. Cells were treated with the compounds in the concentrations indicated for either 4 h for an MTT assay or for 48 h for an SRB assay. Data is represented as average ± SD, from three biological replicates; individual assays were performed in duplicates. Values were normalized for vehicle treated cells, absorbance for vehicle treated cells equals to 1. […] Except for the Os-6 complex, Two-way ANOVA test was performed and all values were compared with each other (Tukey’s post hoc test). […] Non-linear regression was performed on the data.
(§3) 3 × 10^3 A2780 cells, 2 × 10^3 ID8 cells and 4 × 10^3 primary fibroblasts were plated to 96 well plates. Cells were treated with the compounds in the concentrations indicated for either 4 h for an MTT assay or for 48 h for an SRB assay. Data is represented as average ± SD, from three biological replicates; individual assays were performed in duplicates. Values were normalized for vehicle treated cells, absorbance for vehicle treated cells equals to 1. Statistical significance was assessed using two-way ANOVA test comparing the free ligand and each complex as a complex-ligand pair. Before the test normality was assessed using the D’Agostino-Pearson test. The ID8 SRB Ir-7+L-7 dataset had lognormal distribution. […] All other datasets had normal distribution. For better visibility the p values are presented in an excel sheet at https://figshare.com/s/2c942a812caea8869a67. Non-linear regression was performed on the A2780 SRB and the ID8 SRB datasets.
(§4) MTT reduction assay measures the activity of mitochondrial complex I and can be used to detect toxicity ([Virág et al., 1998]; [Henslee et al., 2016]). The assay was performed similar to ([Bakondi et al., 2003]). Briefly, cells were plated in 96 well plates the day before the assay. Cells were treated with the compounds for 4 h, then MTT was added in 0.5 mg/ml final concentration and cells were incubated at 37°C in a cell incubator. Culture media was removed and the reduced MTT dye was dissolved in dimethyl-sulfoxide (DMSO) and plates were measured in a plate photometer (Thermo Scientific Multiscan GO spectrophotometer, Waltham, MA, United States) at 540 nm. On each plate wells were designed to contain untreated/vehicle-treated cells. In calculations the readings for these wells was considered as 1 and all readings were expressed relative to these values.

[2] = system: A2780 ovarian cancer cells; experiment: SRB assay (cytostasis, 48 h) on A2780 cells; assay type: cell-based; details: 48 h treatment
Experimental: as §1, §2, §3
(§5) The assay was performed similar to ([Kovács et al., 2019]). Cells were seeded in 96 well plates the day before the assay. Cells were treated with the compounds for 48 h. Cells were fixed with 10% trichloroacetic acid (TCA). Fixed cells were washed in distilled water 3 times followed by staining with SRB (0.4 m/V% dissolved in 1% acetic acid) for 10 min. Stained cells were washed in 1% acetic acid 5 times; acetic acid was removed and cells were left to dry. Protein-bound SRB was released by adding 100 µl 10 mM Tris base. Plates were measured in a plate photometer (Thermo Scientific Multiscan GO spectrophotometer, Waltham, MA, United States) at 540 nm. On each plate wells were designed to contain vehicle-treated cells. In calculations the readings for these wells was considered as 1 and all readings were expressed relative to these values.
Statistical analysis was performed using 8.0.1 version of Graphpad Prism. Values were tested for normal distribution using the D’Agostino and Pearson normality test. When necessary, values were log normalized or were normalized using the Box-Cox normalization method ([Box and Cox, 1964]) as indicated in the figure captions. […]

[3] = system: primary dermal fibroblasts; experiment: MTT reduction assay (4 h) on primary fibroblasts; assay type: cell-based; details: primary human dermal fibroblasts
Experimental: as §3
Human primary dermal fibroblasts were cultured in low glucose DMEM (1 g/L glucose) medium supplemented with 20% fetal calf serum, 2 mM glutamine, 1% penicillin-streptomycin.
as §4

[4] = Solubility / precipitation observed during testing; assay type: physicochemical; details: free ligand in cell assays
Experimental: In concentrations exceeding 33.3 µM the complexes frequently precipitated. All of the complexes and the free ligand exerted little rapid cytotoxicity in MTT assays, not more than 35% in any of the cell lines assessed in the peak concentration, except for the Os-7 complex with 75% toxicity on ID8 cells (Figure 5; Table 2). […] The complexes were more efficient in ID8 cells as compared to A2780 cells (Figure 5; Table 2). […] On primary non-transformed fibroblasts, used as controls, the complexes exerted negligible toxicity and low cytostatic activity (Figure 5; Table 2). The cytostatic activity was not more than 50% in the peak concentration.

[5] = system: A2780 ovarian cancer cells; details: ref Kacsir et al., cited from earlier work
[6] = system: cisplatin resistant A2780 cells; experiment: SRB assay (48 h) on cisplatin-resistant A2780 cells; assay type: cell-based
Experimental: 6 × 10^3 cisplatin-resistant A2780 cells were plated to 96 well plates. Cells were treated with the compounds in the concentrations indicated for either 4 h for an MTT assay or for 48 h for an SRB assay. Data is represented as average ± SD, from three biological replicates; individual assays were performed in duplicates. Values were normalized for vehicle treated cells, absorbance for vehicle treated cells equals to 1. Each compound was assessed individually. Normality was assessed using the Shapiro-Wilk test. […] Statistical significance was assessed using One-way ANOVA test comparing all points to the smallest concentration. For better visibility the p values are presented in an excel sheet at https://figshare.com/s/2c942a812caea8869a67. Non-linear regression was performed on the results of the SRB assay datasets.
Cisplatin resistant cells underwent selection (1 µM cisplatin) once a week for 3 days before plating for any assay.
as §5
Statistical analysis was performed using 8.0.1 version of Graphpad Prism. Values were tested for normal distribution using the D’Agostino and Pearson normality test. When necessary, values were log normalized or were normalized using the Box-Cox normalization method ([Box and Cox, 1964]) as indicated in the figure captions.

[7] = system: multiresistant bacteria (Staphylococcus aureus, Enterococcus species); set-up: method as in Balázs et al., 2022; details: ref Balázs et al., 2022; cited from earlier work
[8] = cisplatin resistant A2780 cells, SRB, 48 h

In the case of Cc1c(C)c(C)[c-](C)c1C.F[P-](F)(F)(F)(F)F.O=C(OCC1OC(n2cc(-c3ccc4ccccc4n3)nn2)C(OC(=O)c2ccccc2)C(OC(=O)c2ccccc2)C1OC(=O)c1ccccc1)c1ccccc1.[Cl][Rh+2] (mixture of isomers) [Rh-7], the “A2780 MTT Max. (maximal inhibition)” value [1] is reported as 18.3%, the “A2780 SRB Max. (maximal inhibition)” value [2] is reported as 47.9% and the “Fibroblast MTT Max. (maximal inhibition)” value [3] is reported as 15.09%.

With CCCCCCCC(=O)OC[C@H]1O[C@@H](n2cc(-c3ccccn3)nn2)[C@H](OC(=O)CCCCCCC)[C@@H](OC(=O)CCCCCCC)[C@@H]1OC(=O)CCCCCCC [L-6] the “solubility (suitability for testing)” value [4] was “insoluble”.

In the case of N.N.[Cl][Pt][Cl] [Cisplatin, cisplatin, reference compound], the “A2780 SRB Max. (maximal inhibition), cisplatin” value ([5]; A2780 cells, SRB, 2021) is listed as over 90%, the IC50 ([5]; cisplatin-sensitive A2780 cells, SRB, 2021, read-out: A2780 SRB IC50, cisplatin) is listed as 1210 nM and the “fold change of IC50, cisplatin resistant vs cisplatin sensitive A2780” value ([6]; SRB assays, resistant / sensitive A2780) is listed as 13.6 fold. For the same compound, the IC50 [6, 8] was 16.5 µM and the “cisplatin resistant A2780 SRB Max. (maximal inhibition)” value [6, 8] was over 90%.

For Cc1ccc(C(C)C)cc1.F[P-](F)(F)(F)(F)F.O=C(OCC1OC(n2cc(-c3ccccn3)nn2)C(OC(=O)c2ccccc2)C(OC(=O)c2ccccc2)C1OC(=O)c1ccccc1)c1ccccc1.[Cl][Os+] (mixture of isomers) [Ia], the IC50 ([5]; A2780 cells, 2022, read-out: IC50 against A2780 ovarian cancer) is listed as 730 nM and the “MIC on multiresistant bacteria” value [7] is listed as 0.3 to 5.0 µM.
